The values below come from patent US20240075049A1 (priority 2020, published 2024).

Data set [1] in a line: adverse reaction in a treated coronavirus patient. Format: in vivo, human. The note with it: person, doxycycline 100 mg bd added to amantadine, ivermectin, zinc. How it is done:
A front-line worker and was diagnosed with coronavirus in association with fevers, aches and fatigue. They are commenced on amantadine orally using the standard capsule of […] once daily for ten days. […] They developed a rash to the doxycycline when added and this was changed to azithromycin 250 mg bd for the duration of the ten-day course.

The conditions of data set [2]: in vivo; cited from earlier work.
The nature of data set [3]: ivermectin toxicity at high doses, relation to LD50. Format: in vivo. The note with it: 2000 mcg/kg (120 mg in a 60 kg adult).
For data set [4] the following is noted: in vivo; cited from earlier work. This is another data set of the same source.
The conditions of data set [5]: more than 200 mcg/kg (12 mg), 2000 mcg/kg (120 mg) and above; cited from earlier work.

On to `C[C@H]1c2cccc(O)c2C(=O)C2=C(O)[C@]3(O)C(=O)C(C(N)=O)=C(O)[C@@H](N(C)C)[C@@H]3[C@@H](O)[C@@H]21` [doxycycline], for which the adverse reaction entry in data set [1] is reported as “rash”.

For `CCN(CCO)CCCC(C)Nc1ccnc2cc(Cl)ccc12` (centres unmarked) [hydroxychloroquine], the half-life in data set [2] is 40 days.

For ivermectin, in data set [3], the “dose as percentage of the LD50” value worked out at 7%. Moreover, the excretion result in data set [4] is listed as “mostly in the feces”. The “toxicity at doses above the accepted therapeutic dose” value in data set [5] is reported as “without any increase in ivermectin toxicity”.
